Experimental data: US20240108739A1, “OLIGOMERIC COMPOUNDS BINDING SPECIFICALLY TO PROTEOGLYCANS” (PHI PHARMA SA, priority 2020, published 2024)
Values belong to the compound of their own block, whether it stands above or below them. Starred links: 1 amine or outer side, 2 acyl side, 3 side chain; linkers in the order of their positions; H or OH if unused. Positions of bridges follow the written chain, without caps; N, C: chain ends. Non-standard residues stand in square brackets, D forms with d. Residues, ends and D or L forms follow the SMILES beside them. Chains are numbered I, II in the order given. No end group written: not given here. ξ: configuration not given here. *: point of attachment. X1 = CC1(C)C(/C=C/C(=C/C=C2\N(CCCS(=O)(=O)O)c3ccc(S(=O)(=O)O)cc3C2(C)C)c2cccc(CCC(=O)NCCN3C(=O)CC(*)C3=O)c2)=Nc2c1cc(Cl)c[n+]2CCCS(=O)(=O)[O-]; X3 = N=c1ccc2c(-c3ccc(C(=O)NCCCCCN4C(=O)CC(*)C4=O)cc3C(=O)O)c3ccc(N)c(S(=O)(=O)O)c3oc-2c1S(=O)(=O)O; X2 = O=C(CCCCCN1C(=O)CC(*)C1=O)NNC(=O)CCCCC1SC[C@H]2NC(=O)N[C@@H]12; NH(CH2CH2O)5CH2CO = O=C(COCCOCCOCCOCCOCCN[*:1])[*:2]; ξIle = CC[C@H](C)C(N)C(=O)O; Orn = NCCC[C@H](N)C(=O)O; AEA = NCCOCC(=O)O

Experiments:
CHO-K1 (WT) cells = experiment: Flow cytometry binding of 680RD-labelled PEG variants to CHO cells (Example 4); format: cell-based; settings: 680RD fluorescence, 30 min at 4 °C, BSA 3% + PEG600 2%; FIGS. 4 and 5
Method: Tumor cell lines in exponential growth phase were cultured in complete culture medium with 10% FBS and grown in 75 cm^2 cell culture flasks. On the day of the experiment, cells were harvested and transferred in V-bottom culture plates, washed with PBS 1× supplemented with BSA 3% and then incubated with compounds of the present invention coupled with 680RD fluorochrome for 30 min at 4° C. in PBS 1× supplemented with BSA 3% and PEG600 2% at various dilutions (serial dilutions).
After the incubation, cells were washed in PBS 1× supplemented with BSA 3%.
After the incubation, cells were washed in PBS 1× supplemented with 3% BSA and then incubated for at least 15 min at 4° C. with DAPI (Thermo Fisher Scientific) in order to exclude dead cells and samples are directly acquired on a flow cytometer. Data generated on the flow cytometer was analyzed using Flowjo™ 10.6.0.

[1] = test system: HCT-116 cells (colon carcinoma); experiment: Internalization in adherent cells, Trypan Blue quenching flow cytometry (Example 6); format: cell-based; settings: 200 nM, 37 °C, FIG. 8
Method: Adherent cell lines in exponential growth phase were cultured in complete culture medium with 10% FBS and grown in flat-bottom culture plates. On the day of the experiment, cells were washed with culture medium supplemented with 3% BSA (Sigma-Aldrich) and then incubated with peptides coupled with A488 fluorochrome for various timepoints (from 5 to 160 min) at a single concentration or at various dilutions (serial dilutions) at a determined timepoint at 37° C. in the corresponding culture medium supplemented with 3% BSA. After the incubation, cells were washed in PBS 1× and detached using trypsin. Following trypsinization, cells were washed in PBS 1× supplemented with 3% BSA and then incubated for at least 15 min at 4° C. with DAPI (Thermo Fisher Scientific) in order to exclude dead cells. Right before acquisition on a flow cytometer, samples were divided in two. The first series of samples was acquired directly on a flow cytometer whereas the second series was supplemented with Trypan Blue in order to observe the internal fluorescence only. The percentage of internalization was further determined.
Fluorescence geometric mean of samples is standardised by subtracting fluorescence geometric mean of negative control (no compound) and the addition of 1.

[2] = test system: chondroitin-6-sulfate (C6S); experiment: ELISA binding to purified GAGs (Example 1); settings: SAV-HRP/TMB absorbance 450 nm, binding at pH 6.4 for 1 hour at 37 °C, FIG. 1
Method: (§1) ELISA plates were coated with various purified GAGs (Sigma, AMBIO) in PBS pH 7.4 for 2 hours at 37° C. Plates were blocked overnight at 4° C. with 200 μl of PBS pH 7.4, Tween 0.05%+BSA 3%+PEG400 2%, then washed twice with fresh buffer TSCM pH 6.4 ((Tris 20 mM, NaCl 150 mM, BSA 1%, Tween 0.05%, 2 mM MgCl2, 2 mM CaCl2). Binding of the different peptides at serial dilution was conducted in TSCMP (TSCM+2% (w/v) PEG 600) pH 6.4 for 1 hour at 37° C. (100 ul per well). Plates were washed three times with fresh TSCM pH 6.4 (200 ul per well) and SAV-HRP was added at a dilution of 1/8000 (100 ul per well) for 20 min at room temperature. Following 3 washes with PBS pH 7.4, 3,3′,5,5′-tetramethylbenzidine (TMB) substrate was added for 10 min (100 ul per well), protected from light. The reaction was stopped by addition of 100 μl of 1 M H2SO4 and the absorbance at 450 nm was measured.
(§2) The GAGs tested in this example were: C4Str: chondroitin-4-sulfate(tracheal); C4Sns: chondroitin-4-sulfate (nasal); CSPG: chondroitin sulfate proteoglycan; C6S: chondroitin-6-sulfate; HA: hyaluronic acid; HEP: heparin; HS: heparan sulfate; DS: dermatan sulfate; PBS: PBS negative control.

[3] = test system: chondroitin-4-sulfate (C4S); experiment: ELISA binding to purified GAGs (Example 1); settings: SAV-HRP/TMB absorbance 450 nm, binding at pH 6.4 for 1 hour at 37 °C, FIG. 1
Method: as §1, §2

HCT 116 tumor xenograft = experiment: In vivo biodistribution by Optical Imaging in HCT 116 xenografted mice (Example 9); set-up: species or system athymic nude mice
Method: For this purpose, HCT 116 cells were subcutaneously inoculated into the shoulder of athymic nude mice, and then the fluorescently-labelled compound was administered intravenously.
Optical Imaging was used to evaluate fluorescent signals in mice 0.5, 1, 3, 8, 24, and 72 hours after the administration of [(51-hS)2KS]2KC-Mal-680RD at 3 different concentrations. Flow cytometry was also used to evaluate the tumor target expression in xenografted mice.
HCT-116 cells were grown in McCoy's 5a medium supplemented with 10% foetal bovine serum, 100 IU/mL penicillin and 100 μg/mL streptomycin. The trypan-blue exclusion test was used to assess cell viability before cells inoculation. An aliquot (10 μL) of cell suspension was mixed with an equal amount of 0.4% trypan blue solution in PBS. 10 μL of the final solution was introduced in a counting chamber (hemocytometer). Viable cells appear round and bright, while damaged cells appear deep blue because of the incorporation of the trypan dye. Cell viability was expressed as % of viable cells over total cells). Cell cultures with viability of less than 70% were discarded.
HCT 116 cells were collected and washed two times with PBS. One million of HCT 116 cells were suspended in 1:1 Matrigel™: McCoy's 5a (total volume 0.15 mL) and then injected subcutaneously into the shoulder of each female mouse of groups A, B, C.
Animals were randomly assigned to the following experimental groups, Table 12.
All animals were dosed once according to Table 12 when the tumors reached approximately 500-600 mm^3. The solutions were injected intravenously via the tail vein at the administration volume of 100 μL. After each injection the tail vein was flushed with 100 μL of sterile saline solution. All animals were individually inspected before the treatment and 0.5, 1, 3, 8, 24, and 72 hours after treatment.
Clinical signs of the animals, such as posture, movement, breath, external body appearance, and any other relevant clinical sign were recorded. Mice of groups A, B, and C were anesthetized under 3-4% Sevoflurane gas anaesthesia (O2 95.0%) and imaged 0.5, 1, 3, 8, 24, and 72 hours post treatments. Mice were irradiated with filtered light of wavelength 675 nm and an image of emission light intensity was collected at 720 nm wavelength. Field of View, fstop, Binning and Exposition Time were determined during experimental setting. Regions of interest (ROIs) were selected by an operator over the acquired supine, dorsal, and side views. The signal intensity within the ROIs was determined automatically by the software. At the end of the experiment the mice were sacrificed and tumors were excised to measure ex vivo the fluorescent signal intensity.

[4] = background statement; cited from earlier work
[5] = test system: CHO-K1 cells (wild type, GAG present); experiment: Flow cytometry binding of biotinylated compounds to CHO cells (Example 3); format: cell-based; settings: 30 min at 4 °C, streptavidin-680RD fluorescence; FIG. 3A
Method: (§3) Cell lines in exponential growth phase were cultured in complete culture medium with 10% FBS and grown in 75 cm^2 cell culture flasks. On the day of the experiment, cells were harvested and transferred in V-bottom culture plates, washed with PBS 1× supplemented with BSA 3% and then incubated with (51-hS)2KC-Mal-Biotin, (51-hS)2KS-(51-hS)KC-Mal-Biotin, [(51-hS)2KS]2KK(Biotin) and VAR2-Biotin for 30 min at 4° C. in PBS 1× supplemented with BSA 3% (and eventually PEG600 2%) at various dilutions (serial dilutions).
(§4) After the incubation, cells were washed in PBS 1× supplemented with BSA 3%. For visualization, cells were incubated for 15 min at 4° C. with streptavidin coupled to 680RD fluorochrome. After the incubation, cells were washed in PBS 1× supplemented with 3% BSA and then incubated for at least 15 min at 4° C. with 4′,6-diamidino-2-phenylindole (DAPI) (Thermo Fisher Scientific) in order to exclude dead cells. Samples were directly applied to a flow cytometer. Data generated on the flow cytometer was analyzed using Flowjo™ 10.6.0.

[6] = test system: CHO-pgsA-745 cells (GAG-deficient mutant); experiment: as above; format: cell-based; settings: 30 min at 4 °C, streptavidin-680RD fluorescence; FIG. 3B
Method: as §3, §4

Compound: [(51-hS)2K(PEG1)]2KC-Mal-680RD: Four copies of SEQ ID NO:37, structure comprising SEQ ID NO:7 (n is 1), L-Cys conjugated to IRDye 680RD Maleimide (chain 1 RYF[dV]RI[Orn]YR; chain 2 [dH]SK[AEA]KC(IRDye 680RD maleimide); also: four peptide copies on branched Lys scaffold, further copies not in the chains)
- binding on CHO-K1 cells compared with [(51-hS)2KS]2KC-Mal-680RD (CHO-K1 (WT) cells): increased binding

Compound: I: Ac-RYF[dV]R[ξIle][Orn]YR[dH]SKSKC(X3)-NH2 / II: Ac-RYF[dV]RI[Orn]YR[dH]SKS / III: Ac-RYF[dV]RI[Orn]YR[dH]S / IV: Ac-RYF[dV]RI[Orn]YR[dH]S (amide I:12-III:C, I:14-II:C, II:12-IV:C) [[(51-hS)2KS]2KC-Mal-Alexa488]
- extent of internalisation in HCT-116 cells ([1]; time course up to 160 min): 85%
- time after which 70% is internalised in HCT-116 cells [1]: 40 min

Compound: [(51-hS)2K(PEG5)]2KC-Mal-680RD: Four copies of SEQ ID NO:37, structure comprising SEQ ID NO:7 (n is 5), L-Cys conjugated to IRDye 680RD Maleimide (chain 1 RYF[dV]RI[Orn]YR; chain 2 [dH]SK[NH(CH2CH2O)5CH2CO]KC(IRDye 680RD maleimide); also: four peptide copies on branched Lys scaffold, further copies not in the chains)
- binding on CHO-K1 cells compared with [(51-hS)2KS]2KC-Mal-680RD (CHO-K1 (WT) cells): increased binding

- binding affinity to C6S [2]: binds specifically
- binding affinity to C4S [3]: binds specifically
Compound: RYFvRIOYR (RYF[dV]RI[Orn]YR) [SEQ ID NO:37, Peptide moiety 51]

Compound: I: Ac-RYF[dV]R[ξIle][Orn]YR[dH]SKSKC(X1)-NH2 / II: Ac-RYF[dV]RI[Orn]YR[dH]SKS / III: Ac-RYF[dV]RI[Orn]YR[dH]S / IV: Ac-RYF[dV]RI[Orn]YR[dH]S (amide I:12-III:C, I:14-II:C, II:12-IV:C) [[(51-hS)2KS]2KC-Mal-680RD]
- tumor signal of group B relative to other groups (HCT 116 tumor xenograft; group B 20 nmol/mouse i.v. vs 4 nmol/mouse, dependent on dose and on blocking compound): higher tumor signal
- tumor to muscle ratio of fluorescence signal (HCT 116 tumor xenograft; groups A and B, all imaging times, FIGS. 12 and 13): almost two-fold
- fluorescence signal (Average Radiant Efficiency) in the abdominal region, mainly liver and intestine (HCT 116 tumor xenograft; groups A, B, C (4, 20, 4 + 16 unlabeled nmol/mouse i.v.), imaging 0.5-72 h, independent of dose or blocking compound): strong signal
- fluorescence signal (Average Radiant Efficiency) in the tumor (HCT 116 tumor xenograft; tumor of all groups, mainly groups A and B, i.v., imaging 0.5-72 h): presence of a signal

Compound: CCc1c2c(nc3ccc(O)cc13)-c1cc3c(c(=O)n1C2)COC(=O)[C@]3(O)CC [SN-38]
- activity relative to irinotecan [4]: 1000 times
- potency relative to irinotecan in in vitro cytotoxicity assays [4]: 2- to 2000 fold

Compound: CC[C@H](C)C(NC(=O)[C@H](CCCNC(=N)N)NC(=O)[C@H](NC(=O)[C@H](Cc1ccccc1)NC(=O)[C@H](Cc1ccc(O)cc1)NC(=O)[C@H](CCCNC(=N)N)NC(C)=O)C(C)C)C(=O)N[C@@H](CCCN)C(=O)N[C@@H](Cc1ccc(O)cc1)C(=O)N[C@@H](CCCNC(=N)N)C(=O)N[C@H](Cc1c[nH]cn1)C(=O)N[C@@H](CO)C(=O)N[C@@H](CCCCNC(=O)[C@H](CO)NC(=O)[C@@H](Cc1c[nH]cn1)NC(=O)[C@H](CCCNC(=N)N)NC(=O)[C@H](Cc1ccc(O)cc1)NC(=O)[C@H](CCCN)NC(=O)[C@@H](NC(=O)[C@H](CCCNC(=N)N)NC(=O)[C@H](NC(=O)[C@H](Cc1ccccc1)NC(=O)[C@H](Cc1ccc(O)cc1)NC(=O)[C@H](CCCNC(=N)N)NC(C)=O)C(C)C)[C@@H](C)CC)C(=O)N[C@@H](CO)C(=O)N[C@@H](CCCCNC(=O)[C@H](CO)NC(=O)[C@@H](Cc1c[nH]cn1)NC(=O)[C@H](CCCNC(=N)N)NC(=O)[C@H](Cc1ccc(O)cc1)NC(=O)[C@H](CCCN)NC(=O)[C@@H](NC(=O)[C@H](CCCNC(=N)N)NC(=O)[C@H](NC(=O)[C@H](Cc1ccccc1)NC(=O)[C@H](Cc1ccc(O)cc1)NC(=O)[C@H](CCCNC(=N)N)NC(C)=O)C(C)C)[C@@H](C)CC)C(=O)N[C@@H](CSC1CC(=O)N(CCCCCC(=O)NNC(=O)CCCCC2SC[C@H]3NC(=O)N[C@@H]23)C1=O)C(N)=O (some centres unmarked) [(51-hS)2KS-(51-hS)KC-Mal-Biotin] (I: Ac-RYF[dV]R[ξIle][Orn]YR[dH]SKSKC(X2)-NH2 / II: Ac-RYF[dV]RI[Orn]YR[dH]S / III: Ac-RYF[dV]RI[Orn]YR[dH]S; amide I:12-II:C, I:14-III:C)
- binding on CHO-K1 cells, times better than (51-hS)2KC-Mal-Biotin [5]: 17.9 ×
- reduction of fluorescence on CHO-pgsA-745 as compared with fluorescence on CHO-K1 cells [6]: 209.9 fold
